Measurements: ChEMBL document CHEMBL1126588 (J Med Chem, 1993)
pKi: −log10 of the molar value. Where a SMILES comes first, the peptide text is derived from it. [ ]: non-standard residue; d: D form. Ahx = NCCCCCC(=O)O

Key:
[1] = target: T1, Neuropeptide Y receptor type 1 (Homo sapiens, UniProt P25929); assay: Tested against neuropeptide Y1 receptors using SK-N-MC human neuroblastoma cells; format: cell-based
T1 sequence (P25929 whole entry): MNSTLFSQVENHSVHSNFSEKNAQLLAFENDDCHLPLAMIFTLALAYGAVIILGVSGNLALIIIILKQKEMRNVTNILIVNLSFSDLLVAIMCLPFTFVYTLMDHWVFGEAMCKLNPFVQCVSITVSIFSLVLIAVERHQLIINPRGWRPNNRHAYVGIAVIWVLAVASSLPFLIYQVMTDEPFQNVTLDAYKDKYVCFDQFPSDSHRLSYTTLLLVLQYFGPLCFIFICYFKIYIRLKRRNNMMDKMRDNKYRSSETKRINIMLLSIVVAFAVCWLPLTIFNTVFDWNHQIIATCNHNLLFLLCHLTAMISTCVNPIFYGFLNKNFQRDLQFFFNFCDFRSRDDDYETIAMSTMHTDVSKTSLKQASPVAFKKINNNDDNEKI

[2] = target: T2, Neuropeptide Y receptor type 2 (Homo sapiens, UniProt P49146); assay: Tested against neuropeptide Y2 receptors using SK-N-BE2 human neuroblastoma cells
T2 sequence (P49146 whole entry): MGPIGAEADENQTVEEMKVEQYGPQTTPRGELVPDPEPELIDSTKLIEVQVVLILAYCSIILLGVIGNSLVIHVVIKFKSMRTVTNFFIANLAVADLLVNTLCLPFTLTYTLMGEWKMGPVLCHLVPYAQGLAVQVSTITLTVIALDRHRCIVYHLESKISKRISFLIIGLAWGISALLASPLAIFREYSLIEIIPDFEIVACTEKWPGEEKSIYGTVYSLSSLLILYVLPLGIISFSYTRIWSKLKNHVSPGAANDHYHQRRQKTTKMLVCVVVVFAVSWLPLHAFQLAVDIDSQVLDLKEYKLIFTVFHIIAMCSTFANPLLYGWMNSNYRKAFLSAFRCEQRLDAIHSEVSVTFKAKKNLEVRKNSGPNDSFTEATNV

Row | Compound | pKi ([1]; sk-n-mc) | pKi [2] | pKi [1]
1 | CC[C@H](C)[C@H](NC(=O)[C@H](CC(C)C)NC(=O)[C@H](CC(N)=O)NC(=O)[C@@H](NC(=O)[C@H]1CNC(=O)CC[C@H](NC(=O)[C@@H](N)Cc2ccc(O)cc2)C(=O)N[C@@H](CO)C(=O)N[C@@H](CCCCN)C(=O)NCCCCCC(=O)N[C@@H](CCCN=C(N)N)C(=O)N[C@@H](Cc2c[nH]cn2)C(=O)N1)[C@@H](C)CC)C(=O)N[C@H](C(=O)N[C@@H](CCCN=C(N)N)C(=O)N[C@@H](CCC(N)=O)C(=O)N[C@@H](CCCN=C(N)N)C(=O)N[C@@H](Cc1ccc(O)cc1)C(N)=O)[C@@H](C)O | 6.66 | 8.64 | 
2 | CC[C@H](C)[C@H](NC(=O)[C@H](CC(C)C)NC(=O)[C@H](CC(N)=O)NC(=O)[C@@H](NC(=O)[C@H]1CNC(=O)CC[C@H](NC(=O)[C@@H](N)Cc2ccc(O)cc2)C(=O)N[C@@H](CO)C(=O)N[C@@H](CCCCN)C(=O)N2CCC[C@H]2C(=O)N[C@H](C)C(=O)N[C@@H](CCCN=C(N)N)C(=O)N[C@@H](Cc2c[nH]cn2)C(=O)N1)[C@@H](C)CC)C(=O)N[C@H](C(=O)N[C@@H](CCCN=C(N)N)C(=O)N[C@@H](CCC(N)=O)C(=O)N[C@@H](CCCN=C(N)N)C(=O)N[C@@H](Cc1ccc(O)cc1)C(N)=O)[C@@H](C)O | < 6.00 | 9.52 | 
3 | CC[C@H](C)[C@H](NC(=O)[C@H](CC(C)C)NC(=O)[C@H](CC(N)=O)NC(=O)[C@@H](NC(=O)[C@H]1CNC(=O)C[C@H](NC(=O)[C@@H](N)Cc2ccc(O)cc2)C(=O)N[C@@H](CO)C(=O)N[C@@H](CCCCN)C(=O)N2CCC[C@H]2C(=O)N[C@H](C)C(=O)N[C@@H](CCCNC(=N)N)C(=O)N[C@@H](Cc2c[nH]cn2)C(=O)N1)[C@@H](C)CC)C(=O)N[C@H](C(=O)N[C@@H](CCCNC(=N)N)C(=O)N[C@@H](CCC(N)=O)C(=O)N[C@@H](CCCNC(=N)N)C(=O)N[C@@H](Cc1ccc(O)cc1)C(=O)O)[C@@H](C)O | < 6.00 | 8.82 | 
4 | CC[C@H](C)[C@H](NC(=O)[C@H](CC(C)C)NC(=O)[C@H](CC(N)=O)NC(=O)[C@@H](NC(=O)[C@H]1CNC(=O)CC[C@@H](NC(=O)[C@@H](N)Cc2ccc(O)cc2)C(=O)N[C@@H](CO)C(=O)N[C@@H](CCCCN)C(=O)N2CCC[C@H]2C(=O)N[C@H](C)C(=O)N[C@@H](CCCN=C(N)N)C(=O)N[C@@H](Cc2c[nH]cn2)C(=O)N1)[C@@H](C)CC)C(=O)N[C@H](C(=O)N[C@@H](CCCN=C(N)N)C(=O)N[C@@H](CCC(N)=O)C(=O)N[C@@H](CCCN=C(N)N)C(=O)N[C@@H](Cc1ccc(O)cc1)C(N)=O)[C@@H](C)O | 6.64 | 8.96 | 
5 | CC[C@H](C)[C@@H]1NC(=O)[C@H](CC(C)C)NC(=O)[C@H](CC(N)=O)NC(=O)[C@@H](NC(=O)[C@H]2CNC(=O)CC[C@H](NC(=O)[C@@H](N)Cc3ccc(O)cc3)C(=O)N[C@@H](CO)C(=O)N[C@@H](CCCCN)C(=O)N3CCC[C@H]3C(=O)N[C@H](C)C(=O)N[C@@H](CCCN=C(N)N)C(=O)N[C@@H](Cc3c[nH]cn3)C(=O)N2)CCCCNC(=O)CC[C@@H](C(=O)N[C@@H](CCCN=C(N)N)C(=O)N[C@@H](CCC(N)=O)C(=O)N[C@@H](CCCN=C(N)N)C(=O)N[C@@H](Cc2ccc(O)cc2)C(N)=O)NC1=O | < 6.00 | 9.52 | 
6 | CC[C@H](C)[C@H](NC(=O)[C@H](Cc1ccc(O)cc1)NC(=O)[C@H](Cc1c[nH]cn1)NC(=O)[C@H](CCCN=C(N)N)NC(=O)[C@H](CC(C)C)NC(=O)[C@H](C)NC(=O)[C@H](CO)NC(=O)[C@H](Cc1ccc(O)cc1)NC(=O)[C@H](Cc1ccc(O)cc1)NC(=O)[C@H](CCCN=C(N)N)NC(=O)[C@H](C)NC(=O)[C@H](CC(C)C)NC(=O)[C@H](CC(=O)O)NC(=O)[C@H](CCC(=O)O)NC(=O)[C@H](C)NC(=O)[C@@H]1CCCN1)C(=O)N[C@@H](CC(N)=O)C(=O)N[C@@H](CC(C)C)C(=O)N[C@H](C(=O)N[C@H](C(=O)N[C@@H](CCCN=C(N)N)C(=O)N[C@@H](CCC(N)=O)C(=O)N[C@@H](CCCN=C(N)N)C(=O)N[C@@H](Cc1ccc(O)cc1)C(=O)O)[C@@H](C)O)[C@@H](C)CC |  | 9.10 | 
7 | CC[C@H](C)[C@H](NC(=O)[C@H](Cc1ccc(O)cc1)NC(=O)[C@H](Cc1cnc[nH]1)NC(=O)[C@H](CCCNC(=N)N)NC(=O)[C@@H](C)NC(=O)[C@@H]1CCCN1C(=O)[C@H](CCCCN)NC(=O)[C@H](CO)NC(=O)[C@@H]1CCCN1C(=O)[C@@H](N)Cc1ccc(O)cc1)C(=O)N[C@@H](CC(N)=O)C(=O)N[C@@H](CC(C)C)C(=O)N[C@H](C(=O)N[C@H](C(=O)N[C@@H](CCCNC(=N)N)C(=O)N[C@@H](CCC(N)=O)C(=O)N[C@@H](CCCNC(=N)N)C(=O)N[C@@H](Cc1ccc(O)cc1)C(=O)O)[C@@H](C)O)[C@@H](C)CC |  | 9.05 | 6.54
8 | H-YPSKPGRHYINLITRQRY-OH |  | 8.51 | 

More lines, in order of rising pKi [2], values ahead:

Row | pKi ([1]; sk-n-mc) | pKi [2] | pKi [1] | Compound
9 |  | 9.00 | 6.58 | CC[C@H](C)[C@H](NC(=O)[C@H](Cc1ccc(O)cc1)NC(=O)[C@H](Cc1cnc[nH]1)NC(=O)[C@H](CCCNC(=N)N)NC(=O)CCCCCNC(=O)[C@H](CCCCN)NC(=O)[C@H](CO)NC(=O)[C@@H]1CCCN1C(=O)[C@@H](N)Cc1ccc(O)cc1)C(=O)N[C@@H](CC(N)=O)C(=O)N[C@@H](CC(C)C)C(=O)N[C@H](C(=O)N[C@H](C(=O)N[C@@H](CCCNC(=N)N)C(=O)N[C@@H](CCC(N)=O)C(=O)N[C@@H](CCCNC(=N)N)C(=O)N[C@@H](Cc1ccc(O)cc1)C(=O)O)[C@@H](C)O)[C@@H](C)CC (H-YPSK[Ahx]RHYINLITRQRY-OH)
10 |  | 9.30 | < 6.00 | CC[C@H](C)[C@H](NC(=O)[C@H](CC(C)C)NC(=O)[C@H](CC(N)=O)NC(=O)[C@@H](NC(=O)[C@H]1CCCCNC(=O)C[C@H](NC(=O)[C@@H](N)Cc2ccc(O)cc2)C(=O)N[C@@H](CO)C(=O)N[C@@H](CCCCN)C(=O)N2CCC[C@H]2C(=O)N[C@H](C)C(=O)N[C@@H](CCCNC(=N)N)C(=O)N[C@@H](Cc2cnc[nH]2)C(=O)N1)[C@@H](C)CC)C(=O)N[C@H](C(=O)N[C@@H](CCCNC(=N)N)C(=O)N[C@@H](CCC(N)=O)C(=O)N[C@@H](CCCNC(=N)N)C(=O)N[C@@H](Cc1ccc(O)cc1)C(=O)O)[C@@H](C)O
11 |  | 9.30 | < 6.00 | CC[C@H](C)[C@@H]1NC(=O)[C@H](CC(C)C)NC(=O)[C@H](CC(N)=O)NC(=O)[C@@H](NC(=O)[C@H](Cc2ccc(O)cc2)NC(=O)[C@H](Cc2cnc[nH]2)NC(=O)[C@H](CCCNC(=N)N)NC(=O)[C@@H](C)NC(=O)[C@@H]2CCCN2C(=O)[C@H](CCCCN)NC(=O)[C@H](CO)NC(=O)[C@@H]2CCCN2C(=O)[C@@H](N)Cc2ccc(O)cc2)CCCCNC(=O)CC[C@@H](C(=O)N[C@@H](CCCNC(=N)N)C(=O)N[C@@H](CCC(N)=O)C(=O)N[C@@H](CCCNC(=N)N)C(=O)N[C@@H](Cc2ccc(O)cc2)C(=O)O)NC1=O
12 | 6.89 | 9.52 |  | CC[C@H](C)[C@H](NC(=O)[C@H](CC(C)C)NC(=O)[C@H](CC(N)=O)NC(=O)[C@@H](NC(=O)[C@H]1CNC(=O)CC[C@H](NC(=O)[C@@H](N)Cc2ccc(O)cc2)C(=O)N[C@@H](CO)C(=O)N[C@@H](CCCCN)C(=O)N2CCC[C@H]2C(=O)NCC(=O)N[C@@H](CCCN=C(N)N)C(=O)N[C@@H](Cc2c[nH]cn2)C(=O)N1)[C@@H](C)CC)C(=O)N[C@H](C(=O)N[C@@H](CCCN=C(N)N)C(=O)N[C@@H](CCC(N)=O)C(=O)N[C@@H](CCCN=C(N)N)C(=O)N[C@@H](Cc1ccc(O)cc1)C(N)=O)[C@@H](C)O
